Experimental data reported in PubChem BioAssay (NCI).
“And” between values parts separate entries of the source, which are not always exact repeats. Equal values may be shown once.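 Results reflect a 48-hour exposure of cells in 96-well plates to compound at five concentrations. The concentration for 50% growth inhibition is given as GI50. TGI is the concentration that stops growth completely.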 Where a SMILES comes first, the peptide text is derived from it. Square brackets hold non-standard residues; d marks the D form. Peptide text beside a SMILES is read from it. [ ]: non-standard residue; d: D form. The star is where a group is joined. ξ: configuration not given here. Phe(4-NO2) = N[CH](Cc1ccc([N+](=O)[O-])cc1)C(=O)O; ξPhe(4-NO2) = NC(Cc1ccc([N+](=O)[O-])cc1)C(=O)O; Boc = CC(C)(C)OC(=O)*

Experiments:
Assay in all cases: inhibition of tumour cell growth, NCI panel, 48 h
MDA-MB-231 breast = tested on: MDA-MB-231 breast
NCI-H23 lung = tested on: NCI-H23 lung
NCI-H460 lung = tested on: NCI-H460 lung
OVCAR-3 ovarian = tested on: OVCAR-3 ovarian
PC-3 prostate = tested on: PC-3 prostate
SF-539 CNS = tested on: SF-539 CNS
SK-MEL-28 melanoma = tested on: SK-MEL-28 melanoma
SK-OV-3 ovarian = tested on: SK-OV-3 ovarian
SN12C renal = tested on: SN12C renal
SW-620 colon = tested on: SW-620 colon
UO-31 renal = tested on: UO-31 renal
A498 renal = tested on: A498 renal

SMILES	TGI (MDA-MB-231 breast)	TGI (NCI-H23 lung)	TGI (NCI-H460 lung)	TGI (OVCAR-3 ovarian)	TGI (PC-3 prostate)	TGI (SF-539 CNS) [µM]	TGI (SK-MEL-28 melanoma) [µM]	TGI (SK-OV-3 ovarian) [µM]	TGI (SN12C renal)	TGI (SW-620 colon)	TGI (UO-31 renal) [µM]	TGI (A498 renal) [µM]	GI50 (NCI-H460 lung) [nM]	GI50 (UO-31 renal) [nM]
CC1=CC(=O)/C(=C/N2C(=O)CNC2=S)C(=O)O1	> 100 µM	> 100 µM	> 100 µM	> 100 µM	> 100 µM	> 100	> 100	> 100	> 100 µM	> 100 µM	> 100	–	–	–
O=C1NC(N2CCCCC2)=N/C1=C\c1ccccc1	> 100 µM	> 100 µM	–	> 100 µM	> 100 µM	> 100	> 100	> 100	> 100 µM	> 100 µM	> 100	–	–	–
C#CCOC(=O)[C@@H](C)c1ccc2cc(OC)ccc2c1	> 100 µM	> 100 µM	> 100 µM	–	> 100 µM	> 100	–	> 100	> 100 µM	> 100 µM	> 100	> 100	–	–
CC(=O)OCCCCn1cnc2c(Cl)nc(Nc3ccccc3)nc21	> 100 µM	> 100 µM	> 100 µM	> 100 µM	> 100 µM	> 100	> 100	–	> 100 µM	> 100 µM	> 100	> 100	–	–
O=C(c1cccc2cc(O)ccc12)c1cn(CCN2CCOCC2)c2ccccc12	45.3 µM	> 100 µM	–	–	35.5 µM	> 100	> 100	–	> 100 µM	> 100 µM	71.4	–	–	–
CCNC1=C(NC(=O)CCl)C(=O)c2ccccc2C1=O	40.9 µM	36 µM	57.4 µM	31.5 µM	30.3 µM	44.5	31.7	> 10	32.8 µM	74.6 µM	–	–	–	–
S=C(S)N1CCN(c2ccccc2)CC1	> 100 µM	–	–	> 100 µM	> 100 µM	> 100	> 100	–	> 100 µM	> 100 µM	–	> 100	–	–
CC1(C)CC[C@]2(C(=O)O)CC[C@]3(C)C(=CC[C@@H]4[C@@]5(C)CC[C@H](OC6OC(CO)C(O)C(O)C6O)C(C)(C)[C@@H]5CC[C@]43C)[C@@H]2C1 (some centres not stated)	3.07 µM	3.52 µM	14.3 µM	3.01 µM	2.96 µM	–	3.69	3.16	3.07 µM	3.51 µM	3.1	3.82	–	–
COc1ccc(NC(=O)CC(=O)N2N=C(C)C(N=Nc3ccc(C(=O)O)cc3)C2=O)cc1 (configuration not stated)	> 100 µM	> 100 µM	> 100 µM	> 100 µM	> 100 µM	> 100	> 100	–	> 100 µM	> 100 µM	> 100	> 100	–	–
C=CCN(c1cc(OC)c2c(c1[N+](=O)[O-])C(C)(SC)C(=O)N2)S(C)(=O)=O (configuration not stated)	> 100 µM	> 100 µM	> 100 µM	–	> 100 µM	> 100	> 100	> 100	> 100 µM	> 100 µM	> 100	> 100	–	–
C(/C=C/Nc1ccc(-c2ccccc2)cc1)=Nc1ccc(-c2ccccc2)cc1	> 100 µM	> 100 µM	> 100 µM	> 100 µM	> 100 µM	> 100	> 100	> 100	> 100 µM	> 100 µM	> 100	–	–	–
CCOC(OCC)[C@H](N)[C@@H](O)[C@@H](O)[C@H]1COC(C)(C)O1	> 100 µM	> 100 µM	–	> 100 µM	> 100 µM	–	> 100	> 100	> 100 µM	> 100 µM	> 100	> 100	–	–
C=COC(=O)N1C2CCCC(Cl)(C(C)=O)C1CC2 (configuration not stated)	> 100 µM	> 100 µM	> 100 µM	> 100 µM	> 100 µM	–	> 100	> 100	> 100 µM	> 100 µM	> 100	> 100	–	–
COc1cc2c3c(c1OC)C(=O)C(=O)C1=C3N(CCC1)CC2	> 100 µM	86.3 µM	37.5 µM	73.3 µM	> 100 µM	80.1	> 100	–	> 100 µM	> 100 µM	> 100	92.6	–	–
COc1cc(OC)cc(C(=O)Cc2c(C(=O)c3ccccc3)c3ccccc3n2C(=O)c2ccccc2)c1	–	> 100 µM	> 100 µM	> 100 µM	–	> 100	> 100	99.8	> 100 µM	> 100 µM	> 100	92.5	–	–
CCCCC(N)CSSCC(N)CCCC (configuration not stated)	–	55.4 µM	> 100 µM	47.2 µM	–	47.8	34.8	> 100	36.1 µM	58 µM	47.1	57.4	–	–
Cc1cc(=O)n2nc(CSc3n[nH]c(=S)s3)sc2n1	> 100 µM	> 100 µM	> 100 µM	> 100 µM	> 100 µM	> 100	> 100	> 100	> 100 µM	> 100 µM	> 100	–	–	–
O=C(NNC(=O)c1c(Cl)c(Cl)c(Cl)c(Cl)c1-c1nc2ccccc2[nH]1)c1ccc(Cl)cc1	–	> 100 µM	–	> 100 µM	> 100 µM	> 100	> 100	> 100	> 100 µM	> 100 µM	> 100	> 100	–	–
COc1ncc(C#CC(=O)c2ccccc2)c(OC)n1	5.49 µM	10.9 µM	38 µM	10.3 µM	4.43 µM	–	11.4	42.1	2.78 µM	4.84 µM	5.44	32.4	–	–
CC(C)C1=CC23CCC4C(C)(C(=O)O)CCCC4(C)C2CC1C1C(=O)N(c2cccc(N4C(=O)C5C6CC7C8(C)CCCC(C)(C(=O)O)C8CCC7(C=C6C(C)C)C5C4=O)c2)C(=O)C13 (configuration not stated)	39.2 µM	12.2 µM	–	25.7 µM	17.9 µM	57.7	21.6	–	27.1 µM	31.4 µM	29.1	26.7	–	–

SMILES	TGI (MDA-MB-231 breast)	TGI (NCI-H23 lung)	TGI (NCI-H460 lung)	TGI (OVCAR-3 ovarian)	TGI (PC-3 prostate)	TGI (SF-539 CNS) [µM]	TGI (SK-MEL-28 melanoma) [µM]	TGI (SK-OV-3 ovarian) [µM]	TGI (SN12C renal)	TGI (SW-620 colon)	TGI (UO-31 renal) [µM]	TGI (A498 renal) [µM]	GI50 (NCI-H460 lung) [nM]	GI50 (UO-31 renal) [nM]
COc1ccc(NS(=O)(=O)c2ccc(N=C3C=C(Nc4ccc(S(=O)(=O)Nc5ccc(OC)nn5)cc4)C(=O)c4ccccc43)cc2)nn1	–	29.7 µM	31.5 µM	44.8 µM	–	31.6	31.4	33.1	38.6 µM	32.9 µM	37.8	29	–	–
C=CC(C)(C)n1cc(C2=C(O)C(=O)C(c3c(CC=C(C)C)[nH]c4ccccc34)=C(O)C2=O)c2ccccc21	7.78 µM	19.6 µM	4.36 µM	3.05 µM	4.78 µM	–	2.03	5.41	3.6 µM	13.5 µM	1.9	2.99	–	–
C[C@H](CO)C1=CC(C#C[Si](C)(C)C)N(C(=O)Oc2ccccc2)c2ccccc21 (some centres not stated)	23.4 µM	15.1 µM	28.6 µM	13.5 µM	24 µM	33.9	37.5	31.1	25.5 µM	> 100 µM	21.4	–	–	–
N#Cc1c2ccc([N+](=O)[O-])cc2c(=O)n2c1sc1ccccc12	49.2 µM	43 µM	> 100 µM	–	43.9 µM	–	> 100	–	> 100 µM	> 100 µM	72.7	56.4	–	–
COc1cc(C2SCC(=O)N2NC(=O)c2ccc(NC(C)=O)cc2OC)ccc1O (configuration not stated)	–	> 100 µM	–	> 100 µM	> 100 µM	> 100	> 100	26.7	79.8 µM	> 100 µM	> 100	> 100	–	–
CC1(C)CN=C(Nc2ccc(F)c(Cl)c2)S1	–	> 100 µM	–	> 100 µM	> 100 µM	> 100	> 100	> 100	> 100 µM	> 100 µM	> 100	–	–	–
O=C(N[C@@H](Cc1ccccc1)B(O)O)[C@H](Cc1cccc2ccccc12)NC(=O)N1CCOCC1	0.00745 µM and 0.0232 µM	0.00899 µM and 0.0101 µM	0.106 µM and 0.0579 µM	0.00255 µM and 0.0196 µM	0.106 µM and 0.134 µM	0.000769	0.00367	–	0.0226 µM and 0.0268 µM	0.0125 µM and 0.0101 µM	0.482	0.212	17.2	123
CC(C)(C)OC(=O)N1CCC(NC(=O)NC2CCN(C(=O)OC(C)(C)C)CC2)CC1	> 100 µM	> 100 µM	> 100 µM	> 100 µM	> 100 µM	> 100	> 100	–	> 100 µM	> 100 µM	> 100	> 100	–	–
C/C(=N\Nc1nc2ccccc2o1)c1cc2ccccc2cn1	8.75 µM	8.3 µM	> 100 µM	13.2 µM	12 µM	–	48.6	8.15	33.7 µM	> 100 µM	0.271	> 100	–	–
CN=C(N)NC	–	> 100 µM	> 100 µM	> 100 µM	–	> 100	> 100	> 100	> 100 µM	> 100 µM	> 100	> 100	–	–
CCCCN1CCC(O)(c2cc(C(=O)O)[nH]c2-c2cc(C)no2)C1=O (configuration not stated)	> 100 µM	> 100 µM	> 100 µM	> 100 µM	> 100 µM	–	> 100	> 100	–	> 100 µM	> 100	> 100	–	–
CCNC(=O)CNC(=O)C(Cc1ccc([N+](=O)[O-])cc1)NC(=O)OC(C)(C)C (configuration not stated) (Boc-[ξPhe(4-NO2)]-Gly-NHEt)	> 100 µM	> 100 µM	> 100 µM	> 100 µM	> 100 µM	–	> 100	> 100	> 100 µM	> 100 µM	> 100	> 100	–	–
CN(C(=O)c1ccc(Cl)cc1)C(=S)N1CCN(c2ccccc2)CC1	> 100 µM	> 100 µM	> 100 µM	> 100 µM	–	–	> 100	–	> 100 µM	> 100 µM	> 100	–	–	–
O=C1/C(=C\c2cccc(Oc3ccccc3)c2)SC(c2ccccc2)N1c1cccc(Cl)c1 (configuration not stated)	> 100 µM	> 100 µM	> 100 µM	> 100 µM	–	–	> 100	> 100	> 100 µM	> 100 µM	> 100	> 100	–	–
CS(=O)(=O)CCC(N)P(=O)(O)O (configuration not stated)	–	> 100 µM	> 100 µM	> 100 µM	> 100 µM	–	> 100	> 100	> 100 µM	> 100 µM	> 100	–	–	–
CCOc1ncnc2ccc(Cl)c(I)c12	–	> 100 µM	> 100 µM	> 100 µM	–	–	> 100	> 100	> 100 µM	> 100 µM	75.5	> 100	–	–
NS(=O)(=O)c1nnc(NC(=O)/C=C/C(=O)O)s1	> 100 µM	> 100 µM	> 100 µM	> 100 µM	–	> 100	> 100	> 100	> 100 µM	> 100 µM	> 100	> 100	–	–
COc1ccc2[nH]c3c(C)c4ncccc4c(C)c3c2c1	> 10 µM	> 10 µM	5.46 µM	9.09 µM	> 10 µM	> 10	3.49	> 10	> 10 µM	4.26 µM	–	–	–	–
COC(=O)CCC(NC(=O)C(CCC(=O)OC)NC(=O)C(CCC(=O)OC)NC(=O)C(CCC(=O)OC)NC(=O)C(CCC(=O)OC)NC(=O)C(Cc1ccc([N+](=O)[O-])cc1)NC(=O)C(CCC(=O)OC)NC(=O)C(CCC(=O)OC)NC(=O)C(CCC(=O)OC)NC(=O)C(CCC(=O)OC)NC(=O)C(CCC(=O)OC)NC(C)=O)C(N)=O (configuration not stated) (Ac-E(OMe)E(OMe)E(OMe)E(OMe)E(OMe)[Phe(4-NO2)]E(OMe)E(OMe)E(OMe)E(OMe)E(OMe)-NH2; configuration not given here)	> 100 µM	> 100 µM	> 100 µM	–	–	–	> 100	> 100	> 100 µM	> 100 µM	> 100	–	–	–
